Source: PubChem BioAssay (NCI)
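Step 1: Grow cells in 96-well plates. Step 2: Expose to compound for 48 hours at 5 concentrations. Step 3: Interpolate endpoints linearly; if unreached, use highest concentration. GI50 marks 50% less growth. Definition used: TGI = concentration required for complete inhibition of growth.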

What was measured:
Assay in all cases: DTP human tumour cell line panel, 48 h
A498 renal = system: A498 renal
COLO 205 colon = system: COLO 205 colon
EKVX NSCLC = system: EKVX NSCLC
HCC-2998 colon = system: HCC-2998 colon
MALME-3M melanoma = system: MALME-3M melanoma
NCI-H226 lung = system: NCI-H226 lung
NCI-H522 lung = system: NCI-H522 lung
OVCAR-5 ovarian = system: OVCAR-5 ovarian
PC-3 prostate = system: PC-3 prostate
SK-MEL-2 melanoma = system: SK-MEL-2 melanoma

Row | Compound | GI50 (A498 renal) | TGI (A498 renal) | GI50 (COLO 205 colon) | TGI (COLO 205 colon) | GI50 (EKVX NSCLC) | TGI (EKVX NSCLC) | GI50 (HCC-2998 colon) | TGI (HCC-2998 colon) | GI50 (MALME-3M melanoma) | TGI (MALME-3M melanoma) | GI50 (NCI-H226 lung) | TGI (NCI-H226 lung) | GI50 (NCI-H522 lung) | TGI (NCI-H522 lung) | GI50 (OVCAR-5 ovarian) | TGI (OVCAR-5 ovarian) | GI50 (PC-3 prostate) | TGI (PC-3 prostate) | GI50 (SK-MEL-2 melanoma) | TGI (SK-MEL-2 melanoma)
1 | O=C1CC(=O)OC(c2ccc([N+](=O)[O-])cc2)O1 | 2.76 µM | 7.72 µM | 1.79 µM | 3.41 µM | 3.56 µM | 18.3 µM | 1.76 µM | 3.18 µM | 2.28 µM | 7.02 µM | 2.07 µM | 5.5 µM | 1.38 µM | 2.72 µM | 2.04 µM | 4.93 µM | 2.36 µM | 6.43 µM | 2.31 µM | 5.85 µM
2 | COC(=O)CCC1=C(C)/C(=C/c2[nH]c(-c3ccc[nH]3)cc2OC)N=C1C | 4.71 µM | 18.5 µM | 0.618 µM | 1.72 µM | 1.46 µM | 10.8 µM | 1.37 µM | 6.73 µM | 1.14 µM | 3.27 µM | 0.38 µM | 1.6 µM | 0.413 µM | 1.78 µM | 1.04 µM | 12.9 µM | 0.564 µM | 12 µM | 0.273 µM | 0.813 µM
3 | N#C[C@@H]1C(n2ccc(N)nc2=O)O[C@H](CO)[C@H]1O (stereo not given in full) | > 100 µM | > 100 µM | 8.79 µM | > 100 µM | > 100 µM | > 100 µM | > 100 µM | > 100 µM | > 55.4 µM | > 100 µM | > 57 µM | > 100 µM | 4.24 µM | > 100 µM | > 75.2 µM | > 100 µM | 97.4 µM | > 100 µM | > 100 µM | > 100 µM
4 | COc1ccc(Cn2c(Cl)c(/C=C3/C(=O)Nc4ccccc43)c3cc(OC)c(C)cc32)cc1 |  |  | 2.33 µM | 5.52 µM | 45.5 µM | > 100 µM |  |  | 9.44 µM | > 100 µM | 2.92 µM | 8.32 µM | 4.77 µM | > 100 µM | 6.06 µM | > 100 µM | 6.22 µM | > 100 µM | 19.8 µM | > 100 µM
5 | Fc1cccc(Cl)c1/C=N\N=C1c2ccccc2-c2ccccc21 |  | > 100 µM |  | > 100 µM |  | > 100 µM |  |  |  | > 100 µM |  | > 100 µM |  | > 100 µM |  | > 100 µM |  | > 100 µM |  | > 100 µM
6 | O=C(O)CSc1ncccc1[N+](=O)[O-] |  | > 100 µM |  | > 100 µM |  | > 100 µM |  |  |  | > 100 µM |  | > 100 µM |  | > 100 µM |  | > 100 µM |  | > 100 µM |  | > 100 µM
7 | CC1CCN(CC(=O)N2c3ccccc3Sc3cc4ccccc4cc32)CC1 |  | > 100 µM |  | > 100 µM |  | > 100 µM |  | > 100 µM |  | > 100 µM |  | > 100 µM |  | > 100 µM |  | > 100 µM |  | > 100 µM |  | > 100 µM
8 | Cc1ccc(SC(=O)N2C(=S)NC(=NC3CCCCC3)C23CCCCC3)cc1 |  |  |  | > 100 µM |  | > 100 µM |  | > 100 µM |  | > 100 µM |  |  |  | > 100 µM |  | > 100 µM |  | > 100 µM |  | > 100 µM
9 | FCc1ncc(-c2ccc(C(F)(F)F)cc2)c(NC2CCCCCC2)n1 | > 10 µM | > 10 µM | > 10 µM | > 10 µM |  |  | > 10 µM | > 10 µM | > 10 µM | > 10 µM | > 10 µM | > 10 µM | > 10 µM | > 10 µM | > 10 µM | > 10 µM | > 10 µM | > 10 µM | > 10 µM | > 10 µM
10 | CCN(CCNc1ccc(C)c2sc3ccccc3c(=O)c12)CC(C)(C)O | 7.46 µM | 21.5 µM | 3 µM | 13.2 µM | 20.1 µM | > 66.7 µM | 8.81 µM | 27.3 µM | 17.8 µM | 54.6 µM | 15.2 µM | 33 µM | 14.9 µM | 47.8 µM | 16.8 µM | 36.5 µM | 12.9 µM | 53.5 µM | 11.9 µM | 33 µM
11 | CCC(c1cccc(O)c1)C(CC)c1cccc(O)c1 (stereo not given) | 4.35 µM | 16.7 µM | 2.05 µM | 5.41 µM | 4.54 µM | 35.7 µM | 5.18 µM | 18.3 µM | 2.1 µM | 20 µM | 12.1 µM | 26.3 µM | 4.9 µM | 19.3 µM | 12 µM | 24.3 µM | 2.28 µM | 12.5 µM | 3.96 µM | 17.2 µM
12 | C[C@]12CC[C@@H]3c4ccc(O)cc4C(O)C[C@H]3[C@@H]1CCC2=O (stereo not given in full) | 76.2 µM | > 100 µM | > 100 µM | > 100 µM | 48.8 µM | > 100 µM | 84.2 µM | > 100 µM | > 100 µM | > 100 µM | > 100 µM | > 100 µM | 60.8 µM | > 100 µM | > 100 µM | > 100 µM | > 100 µM | > 100 µM | > 100 µM | > 100 µM
13 | CCCCCCN(CCCCCC)CC(O)c1ccc2c3c(cccc13)CC2 (stereo not given) | 2.31 µM | 12 µM | 5.56 µM | 19.8 µM | 6.64 µM | 23.1 µM | 3.07 µM | 9.67 µM | 14.1 µM | 32.1 µM | 8.06 µM | 22.9 µM | 3.14 µM | 13.2 µM | 10.8 µM | 23.9 µM | 10.9 µM | 28.7 µM | 11 µM | 24.7 µM
14 | Cc1cc(N/N=C/c2nc(-c3ccc(Cl)cc3)oc2C)c2cc(Cl)ccc2n1 | 11.7 µM | 25.1 µM | 2.31 µM | 6.57 µM | 14.6 µM | 28.3 µM | 2.86 µM | 7.32 µM | 1.78 µM | 3.36 µM | 17 µM | 38.3 µM | 1.89 µM | 4.27 µM | 8.08 µM | 20.6 µM | 2.1 µM | 4.81 µM | 16.4 µM | 31.8 µM
